{
  "source": "patent US7153495B2",
  "about": "“Fragrance friendly and cost effective antiperspirant actives and method of making the same” (Reheis, Inc., priority 2004, dated 2006)",
  "key": {"[1]": {"experiment": "Fragrance compatibility study (colour formation with fragrances, Macbeth Color Spectrophotometer and visual)", "type": "physicochemical", "conditions": "for ΔRG @ 45° C., Average / ΔYB @ 45° C., Average: average of 14 fragrances; for ΔRG @ 45° C., Average / ΔYB @ 45° C., Average / ΔRG @ 45° C. / ΔYB @ 45° C.: four weeks at 45° C.; for ΔRG @ 45° C. / ΔYB @ 45° C.: 0.75% perfume, 20% active", "procedure": "It is known that fragrances in antiperspirants can discolor over time due to the acidic nature and high transition metals concentration especially Fe, Cr, Co, Mn, Cu, and Ni. It is also known that glycine can initiate Schiff base reaction with aldehydes present in fragrances. […] Fragrance dispersions were prepared as follows: 0.75% perfume, 1.0% Arlasolve 200, 20% antiperspirant active (on an anhydrous basis), q.s. DI water. Samples were stored at 45° C. for four weeks and were analyzed for color visually as well as using Macbeth Color Spectrophotometer. Aluminum zirconium tetrachlorohydrex was compared against aluminum zirconium penta and octa salts of Examples 1 and 2. Color was measured as ΔYB (yellow blue) and ΔRG (red green) for all the fourteen fragrances and three actives."}, "human volunteers": {"tested_on": "human volunteers", "experiment": "Controlled Hot Room Gravimetric Test of antiperspirant efficacy, suspension roll-on", "type": "in vivo", "conditions": "for Sweat reduction: anhydrous suspension roll-on, about 20% salt on anhydrous basis, hot room", "procedure": "Aluminum zirconium octa salt of example 1 was tested for antiperspirant efficacy against most widely used aluminum zirconium tetrachlorohydrex in a suspension roll-on formulation using the standard hot room procedure. In the standard hot room procedure, human volunteers are subjected to thermal stress and gravimetric determination of the perspiration produced under the thermal stress with and without antiperspirant product applications are made. The data is subjected to analysis of covariance method described by Murphy and Levine (T. D. Murphy, et al., Analysis of Antiperspirant Efficacy Test Results, Journal of the Society of Cosmetic Chemists, Vol. 42, May 1991, pp. 167–197) and compared for percent sweat reduction capacity. Antiperspirancy tests were conducted by an outside independent lab employing “Controlled Hot Room Gravimetric Test” in conformance with FDA guidelines.\nThe anhydrous suspension roll-ons were prepared using an aluminum zirconium salt concentration of about 20% on an anhydrous basis (about 25% on weight basis) and approximate concentration of other ingredients were Dow Coming 245, 70.5%, Bentone 38, 2.70%, SDA Alcohol 40 (95% alcohol+5% water) 1.8%.\nAluminum zirconium tetrachlorohydrex powder used for comparison had the following chemical analysis. % Al 14.8, % Zr 14.5, % Cl 18.36, % Glycine 11.7, Al/Zr atomic ratio 3.52 and M/Cl atomic ratio of 1.36, % A.S. 77.46.\nSweat reduction values for the octa and tetra salts were 48% and 52% respectively. Results of this study established that amino acid free cost effective aluminum zirconium salts could be prepared without sacrificing efficacy."}},
  "data": [
    {"substance": "aluminum zirconium octachloro-hydrate [Example 1]", "values": [
      {"measurement": "discoloration compared with tetrasalt", "setting": "[1]; 14 fragrances, four weeks of shelf aging at 45° C., visual and instrumental", "result": "less discoloration"},
      {"measurement": "ΔRG @ 45° C., Average", "setting": "[1]", "result": 6.84},
      {"measurement": "ΔYB @ 45° C., Average", "setting": "[1]", "result": 8.2},
      {"measurement": "ΔRG @ 45° C.", "setting": "[1]; fragrance AC 10278/498988", "result": 1.86},
      {"measurement": "ΔYB @ 45° C.", "setting": "[1]; fragrance AC 10278/498988", "result": 3.77},
      {"measurement": "ΔRG @ 45° C.", "setting": "[1]; fragrance Bell J-8381", "result": 2.88},
      {"measurement": "ΔYB @ 45° C.", "setting": "[1]; fragrance Bell J-8381", "result": 5.56},
      {"measurement": "ΔRG @ 45° C.", "setting": "[1]; fragrance Drom99-920", "result": 2.28},
      {"measurement": "ΔYB @ 45° C.", "setting": "[1]; fragrance Drom99-920", "result": 4.45},
      {"measurement": "ΔRG @ 45° C.", "setting": "[1]; fragrance FFS 52847", "result": 6.37},
      {"measurement": "ΔYB @ 45° C.", "setting": "[1]; fragrance FFS 52847", "result": 6.76},
      {"measurement": "ΔRG @ 45° C.", "setting": "[1]; fragrance Firm. 430–507", "result": 12.82},
      {"measurement": "ΔYB @ 45° C.", "setting": "[1]; fragrance Firm. 430–507", "result": 14.63},
      {"measurement": "ΔRG @ 45° C.", "setting": "[1]; fragrance Noville AN 119738", "result": 11.91},
      {"measurement": "ΔYB @ 45° C.", "setting": "[1]; fragrance Noville AN 119738", "result": 12.23},
      {"measurement": "ΔRG @ 45° C.", "setting": "[1]; fragrance Q-26238", "result": 7.45},
      {"measurement": "ΔYB @ 45° C.", "setting": "[1]; fragrance Q-26238", "result": 8.49},
      {"measurement": "ΔRG @ 45° C.", "setting": "[1]; fragrance Q-26239", "result": 6.65},
      {"measurement": "ΔYB @ 45° C.", "setting": "[1]; fragrance Q-26239", "result": 9.40},
      {"measurement": "ΔRG @ 45° C.", "setting": "[1]; fragrance Q-26240", "result": 4.07},
      {"measurement": "ΔYB @ 45° C.", "setting": "[1]; fragrance Q-26240", "result": 5.04},
      {"measurement": "ΔRG @ 45° C.", "setting": "[1]; fragrance Q-26241", "result": 3.76},
      {"measurement": "ΔYB @ 45° C.", "setting": "[1]; fragrance Q-26241", "result": 7.13},
      {"measurement": "ΔRG @ 45° C.", "setting": "[1]; fragrance Q-26242", "result": 6.54},
      {"measurement": "ΔYB @ 45° C.", "setting": "[1]; fragrance Q-26242", "result": 9.77},
      {"measurement": "ΔRG @ 45° C.", "setting": "[1]; fragrance Quest Q-14072", "result": 10.05},
      {"measurement": "ΔYB @ 45° C.", "setting": "[1]; fragrance Quest Q-14072", "result": 9.61},
      {"measurement": "ΔRG @ 45° C.", "setting": "[1]; fragrance SM 25105D", "result": 8.65},
      {"measurement": "ΔYB @ 45° C.", "setting": "[1]; fragrance SM 25105D", "result": 8.57},
      {"measurement": "ΔRG @ 45° C.", "setting": "[1]; fragrance Takasago RM 1595", "result": 10.51},
      {"measurement": "ΔYB @ 45° C.", "setting": "[1]; fragrance Takasago RM 1595", "result": 10.02},
      {"measurement": "adverse experiences", "setting": "human volunteers; 37 female subjects, suspension roll-on", "result": "No adverse experiences"},
      {"measurement": "difference in the reduction in perspiration versus aluminum zirconium tetrachlorohydrex", "setting": "human volunteers; 37 female subjects, p=0.127", "result": "no statistically significant difference"},
      {"measurement": "Sweat reduction", "setting": "human volunteers; 37 female subjects", "result": 48, "unit": "%"}
    ]},
    {"substance": "aluminum zirconium tetrachlorohydrex [reference compound]", "values": [
      {"measurement": "ΔRG @ 45° C., Average", "setting": "[1]", "result": 9.48},
      {"measurement": "ΔYB @ 45° C., Average", "setting": "[1]", "result": 11.94},
      {"measurement": "ΔRG @ 45° C.", "setting": "[1]; fragrance AC 10278/498988", "result": 4.67},
      {"measurement": "ΔYB @ 45° C.", "setting": "[1]; fragrance AC 10278/498988", "result": 7.12},
      {"measurement": "ΔRG @ 45° C.", "setting": "[1]; fragrance Bell J-8381", "result": 4.69},
      {"measurement": "ΔYB @ 45° C.", "setting": "[1]; fragrance Bell J-8381", "result": 7.45},
      {"measurement": "ΔRG @ 45° C.", "setting": "[1]; fragrance Drom99-920", "result": 5.55},
      {"measurement": "ΔYB @ 45° C.", "setting": "[1]; fragrance Drom99-920", "result": 9.69},
      {"measurement": "ΔRG @ 45° C.", "setting": "[1]; fragrance FFS 52847", "result": 6.48},
      {"measurement": "ΔYB @ 45° C.", "setting": "[1]; fragrance FFS 52847", "result": 8.63},
      {"measurement": "ΔRG @ 45° C.", "setting": "[1]; fragrance Firm. 430–507", "result": 18.73},
      {"measurement": "ΔYB @ 45° C.", "setting": "[1]; fragrance Firm. 430–507", "result": 20.27},
      {"measurement": "ΔRG @ 45° C.", "setting": "[1]; fragrance Noville AN 119738", "result": 16.50},
      {"measurement": "ΔYB @ 45° C.", "setting": "[1]; fragrance Noville AN 119738", "result": 16.28},
      {"measurement": "ΔRG @ 45° C.", "setting": "[1]; fragrance Q-26238", "result": 8.67},
      {"measurement": "ΔYB @ 45° C.", "setting": "[1]; fragrance Q-26238", "result": 11.51},
      {"measurement": "ΔRG @ 45° C.", "setting": "[1]; fragrance Q-26239", "result": 8.24},
      {"measurement": "ΔYB @ 45° C.", "setting": "[1]; fragrance Q-26239", "result": 12.12},
      {"measurement": "ΔRG @ 45° C.", "setting": "[1]; fragrance Q-26240", "result": 8.68},
      {"measurement": "ΔYB @ 45° C.", "setting": "[1]; fragrance Q-26240", "result": 10.51},
      {"measurement": "ΔRG @ 45° C.", "setting": "[1]; fragrance Q-26241", "result": 7.98},
      {"measurement": "ΔYB @ 45° C.", "setting": "[1]; fragrance Q-26241", "result": 11.29},
      {"measurement": "ΔRG @ 45° C.", "setting": "[1]; fragrance Q-26242", "result": 9.21},
      {"measurement": "ΔYB @ 45° C.", "setting": "[1]; fragrance Q-26242", "result": 14.50},
      {"measurement": "ΔRG @ 45° C.", "setting": "[1]; fragrance Quest Q-14072", "result": 14.66},
      {"measurement": "ΔYB @ 45° C.", "setting": "[1]; fragrance Quest Q-14072", "result": 16.59},
      {"measurement": "ΔRG @ 45° C.", "setting": "[1]; fragrance SM 25105D", "result": 9.49},
      {"measurement": "ΔYB @ 45° C.", "setting": "[1]; fragrance SM 25105D", "result": 11.76},
      {"measurement": "ΔRG @ 45° C.", "setting": "[1]; fragrance Takasago RM 1595", "result": 9.14},
      {"measurement": "ΔYB @ 45° C.", "setting": "[1]; fragrance Takasago RM 1595", "result": 9.49},
      {"measurement": "Sweat reduction", "setting": "human volunteers; 37 female subjects", "result": 52, "unit": "%"},
      {"measurement": "adverse experiences", "setting": "human volunteers; in vivo", "result": "No adverse experiences"}
    ]}
  ]
}
